In patent US9061984B2 (University of Louisville Research Foundation, Inc., priority 2008, dated 2015):
Converted amounts (≈) assume the structure as drawn. “And” between values parts separate entries of the source, which are not always exact repeats. Equal values may be shown once. Read-outs that look alike come from different tables or passages of the source.

Key:
[1] = system: axenic amastigotes of L. amazonensis (strain MHOM/BR/76/LTB-012); settings: Table 8b
3T3 cells = test: Cell growth inhibition bioassay (sulforhodamine B); format: cell-based, mouse; settings: Mus musculus, NIH3T3; 48 h, SRB; read-out: GI50 in indicated cell line: 3T3
In short: (§1)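 Cells were exposed to compound alongside matched solvent controls, then stained with sulforhodamine B. Percent growth inhibition was calculated from dye absorbance against the control.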

[2] = system: Trypanosoma cruzi (Tulahuen C4); test: In vitro anti-T. cruzi activity (β-galactosidase CPRG colorimetric assay in VERO monolayer); format: cell-based; settings: for Selectivity Index Lab B: IC50, VERO/IC50, T. cruzi; for IC50 / inhibition at 10 µg/mL: Trypanosoma cruzi, TULAHUEN, Vero; for T. cruzi Inhib. (%) / inhibition at 10 µg/mL: 10 μg/mL of each compound, 120 hours; for inhibition at 10 µg/mL: 120 h, read-out: T. cruzi Inhib. (%)
M. tuberculosis H37Rv = test: Conventional aerobic (MABA) culture assay, luminescence MIC; format: cell-based, Mycobacterium tuberculosis; settings: for MIC: Mycobacterium tuberculosis, 168 h, aerobic, 7 days, H37Rv; for Selectivity Index H37Rv: VERO vs MABA MIC
MCF-7 cells = test: Cell growth inhibition bioassay (sulforhodamine B); format: cell-based, human; settings: Homo sapiens, MCF7; 48 h, SRB; read-out: GI50 in indicated cell line: MCF-7
In short: (§2)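 Cytotoxicity is read by sulforhodamine B colorimetry following the Skehan protocol; values are growth inhibition relative to solvent-only wells.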

M-14 cells = test: Cell growth inhibition bioassay (sulforhodamine B); format: cell-based, human; settings: Homo sapiens, M14; 48 h, SRB; read-out: GI50 in indicated cell line: M-14
In short: as §1

HT-29 cells = test: Cell growth inhibition bioassay (sulforhodamine B); format: cell-based, human; settings: Homo sapiens, HT-29; 48 h, SRB; read-out: GI50 in indicated cell line: HT-29
In short: as §1

DU145 cells = test: Cell growth inhibition bioassay (sulforhodamine B); format: cell-based, human; settings: Homo sapiens, DU-145; 48 h, SRB; read-out: GI50 in indicated cell line: DU145
In short: as §2

K562 cells = test: Cell growth inhibition bioassay (sulforhodamine B); format: cell-based, human; settings: Homo sapiens, K562; 48 h, SRB; read-out: GI50 in indicated cell line: K562
In short: as §1

H460 cells = test: Cell growth inhibition bioassay (sulforhodamine B); format: cell-based, human; settings: Homo sapiens, NCI-H460; 48 h, SRB; read-out: GI50 in indicated cell line: H460
In short: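 Human cancer cells (MCF-7 breast, DU145 and PC3 prostate, H460 large cell lung) were treated with compounds. Growth relative to solvent control was quantified by SRB protein stain.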

VERO cells [3] = test: Cell growth inhibition bioassay (sulforhodamine B); format: cell-based, African Green Monkey; settings: Chlorocebus sabaeus, Vero; 48 h, SRB; read-out: GI50 in indicated cell line: VERO
In short: as §2

[4] = Toxicity to peritoneal macrophages (Trypan Blue count); format: cell-based, BALB/C mouse; settings: BALB/C, mouse, Cytotoxicity Macrophages IC50
[5] = system: axenic amastigotes of L. amazonensis (strain MHOM/BR/76/LTB-012); test: microbe, parasite or virus in culture; settings: Leishmania amazonensis
[6] = Cytotoxicity VERO cell (Table 6); settings: African green monkey, VERO cells
[7] = system: non-replicating persistence Mycobacterium tuberculosis (NRP-TB); test: Low oxygen recovery assay (LORA); format: cell-based; settings: value in brackets; for MIC: Mycobacterium tuberculosis, anaerobic 10 days, 28 hour recovery; for Selectivity Index LORA: VERO vs LORA MIC
[8] = Cytotoxicity on VERO cells (MTT), anti-T. cruzi study; settings: African green monkey, VERO cells
PC3 cells = test: Cell growth inhibition bioassay (sulforhodamine B); format: cell-based; settings: Homo sapiens, PC-3; 48 h, SRB; read-out: GI50 in indicated cell line: PC3
Procedure: The cytotoxicity of compounds was assayed as follows. […] Appropriate solvent controls were tested for comparison. The percent inhibition of cell growth relative to the control was evaluated colorimetrically using a sulforhodamine B dye by comparison to the control. The calorimetric procedure followed that published in Skehan et al., J. Nat. Cancer Inst., […], pp. 1107-1112 (1990) and Boyd & Paull, Drug Dev. Res., Vol. 34, pp. 91-109 (1995). […] The cell lines are: 3T3 cells are BALB/3T3 clone A31 embryonic mouse fibroblast cells; H460 cells are human large cell lung cancer cells; DU145 cells are human prostate carcinoma cells; MCF-7 cells are human breast adenocarcinoma cells; M-14 cells are human melanoma cells; HT-29 cells are human colon adenocarcinoma cells; PC3 cells are human prostate adenocarcinoma cells; K562 cells are human chronic myelogenous leukemia cells; and VERO cells are African Green Monkey kidney epithelial cells.

L. peruviana LCA08 = test: Activity against macrophages infected with Leishmania amastigotes; settings: Leishmania peruviana, Macrophage, 48 h, read-out: IC50 L. peruviana LCA08
Procedure: (§3) A cloned line of Leishmania amazonensis(strain MHOM/BR/76/LTB-012) was used in all experiments. Axenically grown amastigote forms of L. amazonensis were maintained by weekly subpassages in MAA/20 medium (Sereno and Lemesre, Antimicrobial Agents and Chemotherapy 41, 972-976 (1997)) at 32±1° C. in 25 cm^2 tissue culture flasks. L. peruviana (strain MHOM/PE/LCA08) and L. braziliensis (strainMHOM/PE/PER006) were maintained in the promastigote stage in a biphasic medium (blood agar with 0.89% NaCl, pH 7.4) at 24° C., with sub-passage every 3 to 4 days. Promastigotes (5×10^6 parasites) were then transferred to 25 cm2 tissue culture flasks containing 5 ml of M199 medium supplemented with 10% foetal bovine serum (FBS), pH 7.4. After 4 days, exponential phase promastigotes were centrifuged for 10 minutes at 1500 g and 4° C. The supernatant was discarded and replaced by fresh M199 medium supplemented with 20% FBS, pH 5.5. Axenic amastigotes transformation was then induced by increasing the temperature to 34° C. and incubating for 96 h (Teixeira et al., Parasitology Research 88, 963-968 (2002)).
(§4) Extracted cells were immediately deposited on sterile 4×4 mm cover glasses and placed in each well of a 96-well plate. Plates were incubated for 24 h at 37° C., 5% CO2 to allow cell adhesion (Castillo et al, Journal of Ethnopharmacology 112, 410-414 (2007)). Pre-warmed complete M199 medium was used twice to remove non-adherent cells. A neutral red method (Fautz et al., Mutation Research 253, 173-179 (1991)) was employed to determine cell concentration. Approximately 7×10^4 viable cells were deposited in each well for adhesion.
(§5) Infection of macrophages by amastigotes was determined as follows. […] Twelve hours after infection, a solution of the compounds to be tested was added to the cultures at various concentrations and maintained at 37° C. in 5% CO2 for a further forty-eight hours more. The plates were fixed with methanol and stained with 10% Giemsa stain. The percentage of infected macrophages was determined microscopically at 100 times magnification. The number of intracellular amastigotes was determined in 300 cells. Following Delorenzi et al. Antimicrobial Agents and Chemotherapy, 45, 1349-1354 (2001)) the percentage of infection rate (% IR) of each culture was calculated as follows: % IR=100−(infection rate of the treated culture/infection rate of the untreated culture)×100.
(§6) All experiments were performed in triplicate. ANOVA was used to test for statistical significance of differences (Epi-Info, Statview student program). The total parasite burden was calculated as a mean number of amastigotes per cells multiplied by the number of infected macrophages.

peritoneal macrophages = test: Toxicity to peritoneal macrophages (Trypan Blue count); format: cell-based, BALB/C mouse; settings: Mus musculus, Peritoneal macrophage, 48 h; Table 7; read-out: IC50 Macrophage
L. braziliensis PER006 = test: Activity against macrophages infected with Leishmania amastigotes; settings: Leishmania braziliensis, Macrophage, 48 h, read-out: IC50 L. braziliensis PER006
L. amazonensis Lma CL1 = test: as above; settings: Leishmania amazonensis, Macrophage, 48 h, read-out: IC50 L. amazonensis Lma CL1
Procedure: as §3, §4, §5, §6

VERO cells [9] = test: Cytotoxicity on VERO cells (MTT), anti-T. cruzi study; settings: for IC50: Chlorocebus sabaeus, Vero, read-out: IC50 VERO, Table 3; for IC50 - VERO Cytotoxicity: Table 2
[10] = Lab B, read-out: T. cruzi IC50 Lab B
[11] = Table 2, read-out: IC50 - T. cruzi
[12] = Table 3, read-out: IC50 T. cruzi
[13] = 72 h, read-out: IC50 L. amazonensis
[14] = IC50 - VERO Cytotoxicity, Table 2

SMILES	Selectivity Index [1]	GI50 (3T3 cells)	Selectivity Index Lab B ([2]; Lab B)	IC50 [2, 10]	MIC (M. tuberculosis H37Rv)	Selectivity Index H37Rv (M. tuberculosis H37Rv)	GI50 (MCF-7 cells)	GI50 (M-14 cells)	GI50 (HT-29 cells)	GI50 (DU145 cells)	GI50 (K562 cells)	GI50 (H460 cells)	GI50 (VERO cells [3])	GI50 (PC3 cells)	T. cruzi Inhib. (%) [2]	IC50 [2, 11]	IC50 [2, 12]	IC50 [5, 13]	IC50 [8, 14]	inhibition at 10 µg/mL [2]	also measured
C(=N/Nc1ncnc2sc3c(c12)CCCC3)/c1ccco1 [II-18]	0.6	2.3 µg/mL	0.6	4.8 µg/mL	11.9 µg/mL (≈ 39.9 µM)	1.0	0.3 µg/mL	3.3 µg/mL	2.5 µg/mL	4.7 µg/mL	1.2 µg/mL	2.1 µg/mL	2.6 µg/mL (≈ 8.71 µM)								IC50 ([2]; Lab A, read-out: T. cruzi IC50 Lab A): 1.2 µg/mL; IC50 at 48 h [4]: 0.7 µM; IC50 ([5]; read-out: L. amazonensis IC50): 1.2 µM; IC50 [6]: 12.3 µg/mL (≈ 41.2 µM); MIC [7]: 2.9 µg/mL (≈ 9.72 µM); Selectivity Index LORA [7]: 4.3; IC50 ([8]; Cytotoxicity VERO Lab B, Lab B): 3 µg/mL (≈ 10.1 µM)
O=c1[nH]cc(F)c(=O)[nH]1 [Compound 5FU, 5-Fluorouracil, reference compound]		< 1.54 µM					6.5 µM	22.4 µM	8.9 µM	15.4 µM	16.7 µM	4.1 µM		14.6 µM							
COc1cc(O)cc(O)c1C(=O)/C=C/c1ccc2c(c1)OCO2 [Compound I-06, (2E)-3-(1,3-Benzodioxol-5-yl)-1-(2,4-dihydroxy-6-methoxyphenyl)-2-propen-1-one]		5.1 µM					20.4 µM	22.6 µM	20.7 µM	12.4 µM	16.2 µM	15.6 µM		18.5 µM	49.61% and 69.78%	2.97 µg/mL	9.4 µM	4.1 µM	8 µg/mL (≈ 25.5 µM)		IC50 (L. peruviana LCA08): 19.7 µM; IC50 (peritoneal macrophages): 157 µM; IC50 (L. braziliensis PER006): 8.6 µM; IC50 (L. amazonensis Lma CL1): 16.6 µM; IC50 (VERO cells [9]): 25.5 µM
COc1cc(O)c(C(=O)/C=C/c2ccc3c(c2)OCO3)c(OC)c1 [Compound I-02, (2E)-3-(1,3-Benzodioxol-5-yl)-1-(2-hydroxy-4,6-dimethoxyphenyl)-2-propen-1-one]		39 µM					140 µM	> 190 µM	> 190 µM	> 190 µM	18.9 µM	> 190 µM		118 µM	11.77%		> 25 µM	> 300 µM		22.8%	
COc1ccc(/C=C/C(=O)c2c(O)cc(OC)cc2OC)cc1 [Compound I-01, (2E)-1-(2-Hydroxy-4,6-dimethoxyphenyl)-3-(4-methoxyphenyl)-2-propen-1-one]		17.2 µM					17.5 µM	22.5 µM	45.3 µM	30.8 µM	20.5 µM	24.1 µM		15.2 µM	41.36%		> 25 µM	17.2 µM		29%	
C=CCOc1cc(OC)c(C(=O)/C=C/c2ccc3c(c2)OCO3)c(OCC=C)c1 [Compound I-19, (2E)-3-(1,3-Benzodioxol-5-yl)-1-[2-methoxy-4,6-bis(2-propenyloxy)phenyl]-2-propen-1-one]		31.7 µM					10.9 µM	17.2 µM	24.1 µM	17.5 µM	12.2 µM	14.5 µM		9.6 µM	58.82%	7.33 µg/mL	13.6 µM	6.6 µM	49 µg/mL (≈ 124 µM)	74.1%	IC50 - T. cruzi ([2]; Table 2): 5.35 µg/mL (≈ 13.6 µM); IC50 (VERO cells [9]): 73.5 µM; IC50 - VERO Cytotoxicity (VERO cells [9]): 29.00 µg/mL (≈ 73.5 µM)
COc1ccc(/C=C/C(=O)c2c(O)cc(O)cc2OC)cc1 [Compound I-05, (E)-1-(2,4-Dihydroxy-6-methoxyphenyl)-3-(4-methoxyphenyl)-2-propen-1-one]		6.7 µM					17.3 µM	19.6 µM	21.6 µM	9 µM	17 µM	14 µM		19.3 µM	68.88% and 38.57%	5.98 µg/mL	> 25 µM	10 µM	5 µg/mL (≈ 16.6 µM)		IC50 (L. peruviana LCA08): 23 µM; IC50 (peritoneal macrophages): 166 µM; IC50 (L. braziliensis PER006): 7.66 µM; IC50 (L. amazonensis Lma CL1): 14.3 µM
FC(F)(F)c1ccc(/C=N\Nc2ncnc3sc4c(c23)CCCC4)cc1 [II-24]	4.1	4 µg/mL	0.8	4 µg/mL	6.1 µg/mL (≈ 16.2 µM)	5.5 (5.5)	2 µg/mL	6.4 µg/mL	2.6 µg/mL	5.6 µg/mL	2.5 µg/mL	5.8 µg/mL	5.4 µg/mL (≈ 14.3 µM)								IC50 at 48 h [4]: 3.1 µM; IC50 ([5]; read-out: L. amazonensis IC50): 0.7 µM; IC50 [6]: 33.5 µg/mL (≈ 89 µM); MIC [7]: 6 µg/mL (≈ 15.9 µM); Selectivity Index LORA [7]: 5.5 (5.5); IC50 ([8]; Cytotoxicity VERO Lab B, Lab B): 3 µg/mL (≈ 7.97 µM)
COc1ccc(/C=N\Nc2ncnc3sc4c(c23)CCCC4)cc1 [II-10]	1.3	5 µg/mL	1.1	5.4 µg/mL	24.1 µg/mL (≈ 71.2 µM)	3.2	4.2 µg/mL	5.5 µg/mL	5.9 µg/mL	7.8 µg/mL	4.7 µg/mL	5.8 µg/mL	6.4 µg/mL (≈ 18.9 µM)								IC50 at 48 h [4]: 21.6 µM; IC50 ([5]; read-out: L. amazonensis IC50): 16.1 µM; IC50 [6]: 76.7 µg/mL (≈ 227 µM); MIC [7]: 9.1 µg/mL (≈ 26.9 µM); Selectivity Index LORA [7]: 8.5; IC50 ([8]; Cytotoxicity VERO Lab B, Lab B): 6 µg/mL (≈ 17.7 µM)
C=CCOc1cc(OC)c(C(=O)/C=C/c2ccc(OC)cc2)c(OCC=C)c1 [Compound I-10, (2E)-1-[2-Methoxy-4,6-bis(2-propenyloxy)phenyl]-3-(4-methoxyphenyl)-2-propen-1-one]		41 µM					19.5 µM	27.6 µM	28.4 µM	21 µM	16.6 µM	20 µM		18.1 µM	62.86%	7.28 µg/mL	21.4 µM	5.5 µM	48 µg/mL (≈ 126 µM)	63.5%	IC50 - T. cruzi ([2]; Table 2): 8.14 µg/mL (≈ 21.4 µM); IC50 (peritoneal macrophages): 18.7 µM; IC50 (VERO cells [9]): 99.9 µM; IC50 - VERO Cytotoxicity (VERO cells [9]): 38.00 µg/mL (≈ 99.9 µM)
